Publication PMC10573946 (International Journal of Molecular Sciences, 2023)
≈ marks a conversion by molar mass, not a printed value. Where “and” joins values, the source holds several entries; their conditions need not be identical. Equal entries are not always repeated. Where two headings read alike, the source gives them in different places.

Columns and labels:
[1] = cited from earlier work
G. lamblia (WB strain) = test: In vivo antigiardial CD-1 mouse model; parameters: species or system CD-1 mice; conditions: for ED50: Giardia duodenalis, 48 h
Experimental: The in vivo antigiardial activity of the compounds was assessed following a previously described phenotypic drug screening method. Female CD-1 mice (16–24 g) were obtained from the animal house facility at Universidad Autónoma Metropolitana, Xochimilco, and were maintained under standard laboratory conditions. The experimental protocols were reviewed and approved by the Animal Care and Use Committee, ensuring compliance with the guidelines for the care and use of laboratory animals. The giardicidal effect of RetroABZ was evaluated on mice infected with trophozoites of the G. lamblia WB strain. Mice were orally treated with a mebendazole solution (10 mg/mouse/day) for 3 consecutive days to ensure their freedom from any potential protozoan infections. One week after treatment, three consecutive fecal examinations were conducted to confirm the absence of protozoan infections before proceeding with experimental infection. Mice (n = 6 per group) were intragastrically infected with 1 × 10^6 trophozoites in 300 µL of a TYI-S-33 medium (Manassas, VA, USA) using a silastic tube ([…]. outside diameter) attached to a 1 mL syringe. Six days after infection, mice were treated intragastrically with 300 µL of RetroABZ dissolved in 1 mL of a 2% DMSO solution in water. […] Five single doses (0.018, 0.037, 0.075, 0.15, and 0.3 mg/kg) of both compounds were evaluated. Forty-eight hours after the treatment (8 days post-infection), the mice were euthanized, and the entire small intestine was removed, opened longitudinally, and placed in 10 mL of a 10% PAF fixer for a minimum of 2 h. Tubes were then vortexed to ensure complete detachment of the trophozoites, and the number of organisms present was calculated for both the treated and control groups.
A data analysis was performed utilizing a Probit analysis. The percentage of surviving trophozoites was calculated by comparing their growth with the control group. To determine the dose required to kill 50% of the trophozoites (ED50), along with the 95% confidence limits, a Probit plot against the logarithm of the drug concentration was generated.

[2] = test system: Huh-7 (human hepatocellular carcinoma cell line); parameters: method as in PMID 35036753; conditions: albendazole, reported value; cited from earlier work
[3] = test system: HaCaT (immortalized human keratinocytes); parameters: method as in PMID 35036753; conditions: albendazole, reported value; cited from earlier work
[4] = Thermodynamic aqueous solubility (shake-flask, HPLC); type: physicochemical; conditions: for solubility at 48 h: 37 °C, thermodynamic from solid, water
Experimental: The aqueous solubility of RetroABZ was assessed using the shake-flask saturation method, as described in previous studies. […] Subsequently, the solution was filtered through a 0.2 μm filter (Phenex-NY 4mm, Torrance, CA, USA). The aqueous solubility of the compound was then determined using an HPLC method. Experimentally, the compound RetroABZ was analyzed with high-performance liquid chromatography (HPLC PerkinElmer 200, Waltham, Massachusetts). The HPLC analysis was performed using an ultraviolet detector (UV/VIS 200). The analite was monitored at a wavelength of 254 nm. Chromatographic separation was performed using a Phenomenex Luna C18 (4.6 × 150 mm, 5 µm, Torrance, CA, USA). The mobile phase utilized in the study consisted of a mixture of methanol and water in a ratio of 60:40 (v/v). The elution from the stationary phase was conducted at a constant flow rate of 1 mL/min (isocratic mode). Aliquots of 20 µL were injected into the HPLC system and the total run time for each injection was set at 10 min; the analysis was performed for triplicate. […] Chromatographic separation was performed using a Phenomenex Luna C18 (4.6 × 150 mm, 5 µm). The mobile phase utilized was a mixture of methanol and a 0.05 M phosphate buffer (pH 5.7), 70:30 (v:v). The flow rate was kept constant at 1 mL/min. To prepare the saturated solution of the compound (1 mg/mL), it was stirred for 48 h at a constant temperature of 37 ± 2 °C. Subsequently, the solution was filtered through a 0.2 µm filter (Phenex-NY 4 mm). Aliquots of 20 µL were injected into the HPLC system, and the analysis was performed for triplicate.

[5] = test system: G. lamblia strain WB trophozoites; test: In vitro giardicidal assay (trophozoite subculture, Probit analysis); type: cell-based, Giardia lamblia; conditions: for IC50: Giardia duodenalis
Experimental: G. lamblia strain WB was cultured in a TYI-S-33 medium (Manassas, VA, USA) supplemented with 10% calf serum and bovine bile. In vitro susceptibility tests were conducted using 4 × 10^4 trophozoites of G. lamblia. […] Additionally, a control group was incubated solely in a culture medium containing DMSO. Following the incubation period, the trophozoites were washed and subcultured in a fresh medium without drugs for an additional 48 h. Subsequently, the trophozoites count was performed, and the median inhibitory concentration (IC50) was calculated with a Probit analysis. All experimental procedures were replicated in triplicate.

[6] = cited from earlier work; remark: listed apart in the source
[7] = In vitro cytotoxic assay (CellTiter 96 AQueous One) in Huh-7; type: cell-based, human; conditions: human, Huh-7 cells, 48 h
Experimental: (§1) The cytotoxic assay of RetroABZ was carried out in Huh-7 (human hepatocellular carcinoma cell line) cells acquired from ATCC (American Type Culture Collection, Manassas, VA, USA). We also included an immortalized human epidermal keratinocyte line (HaCaT) as a control of non-cancerous cells. The cells were cultured in a DMEM medium (Invitrogen, Thermo Fisher Scientific, Inc., Waltham, MA, USA), supplemented with 10% fetal bovine serum (SFB, Invitrogen) and 2 mM glutamine. All cultures were maintained under standard culture conditions (37 °C and 5% CO2). For the cytotoxic assessment in a 96-well plate, 5000 cells per well were planted. […] The cellular viability was next calculated utilizing the CellTiter 96® AQueous One Solution Cell Proliferation Assay kit (Promega, Madison, WI, USA), following the manufacturer’s instructions. The experiments were carried out in triplicate in separate experiments. The Prism 8.0 statistical tool (Graphpad Software Inc., La Jolla, CA, USA) was used to examine the data, and a regression analysis was used to obtain the IC50.

[8] = test system: Huh-7 (human hepatocellular carcinoma cell line); test: as above; type: cell-based
Experimental: as §1

[9] = test system: HaCaT (immortalized human keratinocytes); test: In vitro cytotoxic assay (CellTiter 96 AQueous One) in HaCaT; type: cell-based; conditions: 48 h
Experimental: as §1

[10] = as above; type: cell-based, human; conditions: human, HaCaT cells (immortalized keratinocytes)
Experimental: as §1

[11] = infected CD-1 mice, single intragastric dose, 48 h after treatment, read-out: ED50

## CCCSc1ccc2nc(NC(=O)OC)[nH]c2c1 [Albendazole]
[1]
  oral bioavailability: 5%
[1]; stated in discussion, no reference given
  oral bioavailability: less than 5%
G. lamblia (WB strain)
  ED50: 0.055 mg/kg and 0.207 µmol/kg
[2]
  CC50: 79.7 ± 1 µM
[3]
  CC50: 118.2 ± 1 µM
[4]; 37 ± 2 °C, 48 h, read-out: Solubility in water
  solubility at 48 h: 10.6 ± 0.7 µg/mL (≈ 39.8 µM)
[5]; 48 h, read-out: IC50 G. lamblia, trophozoites, 48 h incubation at 37 °C then 48 h subculture
  IC50: 0.196 ± 0.011 µM
[6]; 25 °C
  documented solubility: 0.02 µg/mL
[6]
  reported solubility: 0.2 µg/mL

## Cc1ncc([N+](=O)[O-])n1CCO [Metronidazole, reference compound]
G. lamblia (WB strain); [11]
  ED50: 0.194 mg/kg and 1.13 µmol/kg

## CCCSc1nc2cc(NC(=O)OC)ccc2[nH]1 [RetroABZ, Methyl (2-(propylthio)-1H-benzo[d]imidazol-5-yl)carbamate]
G. lamblia (WB strain); [11]
  ED50: 0.0188 µmol/kg and 0.005 mg/kg
G. lamblia (WB strain); ratio of ED50 values
  in vivo giardicidal activity relative to albendazole: 11 fold
  in vivo potency relative to metronidazole: 39 fold
[7]
  CC50 at 48 h: > 300 µM
[8]; 48 h
  CC50: 313 ± 22.2 µM
[8]; CC50 Huh-7 / IC50 G. lamblia
  Selectivity Index CC50/IC50 Huh-7: 3768
[4]; Solubility in water
  solubility at 48 h: 246 µg/mL (≈ 926 µM)
[4]; 48 h
  Solubility in water: 245.74 ± 4.07 µg/mL (≈ 926 µM)
[5]; trophozoites, 48 h incubation at 37 °C then 48 h subculture, read-out: IC50 G. lamblia
  IC50: 0.083 ± 0.013 µM
[5]; ratio of IC50 values
  in vitro giardicidal activity relative to albendazole: 2.4 times
[9]
  CC50: 588 ± 18.5 µM
[10]
  CC50 at 48 h: > 300 µM
